Consider two compounds from PMC7658267, “Effects of CYP46A1 Inhibition on Long-Term-Depression in Hippocampal Slices ex vivo and 24S-Hydroxycholesterol Levels in Mice in vivo” (Frontiers in Molecular Neuroscience, 2020).

The target in assay [1] is T1, CYP46A1 (Homo sapiens, UniProt Q9Y6A2). Put plainly: recombinant human CYP46A1 microsomes, cholesterol to 24-hydroxycholesterol, LC-MS/MS ([…] with testosterone as substrate). Type of assay: biochemical.
A further assay addresses T2, Human 5-HT2A (Homo sapiens, UniProt P28223).
T2 construct: gene HTR2A
In words: biochemical. On the set-up: CEREP off-target binding panel, per cent inhibition at 10 uM, n = 2.

In the next assay the target is T3, Human β1 (Homo sapiens, UniProt P08588).
T3 construct: gene ADRB1
Put plainly: biochemical. On the set-up: CEREP off-target binding panel, per cent inhibition at 10 uM, n = 2.

The next assay deals with T4, Human M2 (Homo sapiens, UniProt P08172).
T4 construct: gene CHRM2
Put plainly: biochemical. More on the design: CEREP off-target binding panel, per cent inhibition at 10 uM, n = 2.

In assay [2] the target is T1, CYP46A1. In words: recombinant human CYP46A1 microsomes, cholesterol to 24-hydroxycholesterol, LC-MS/MS ([…] with testosterone as substrate). Type of assay: biochemical. This is another data set of the same source.

Read-outs that look alike come from different tables or passages of the source.

T1 sequence (Q9Y6A2 whole entry): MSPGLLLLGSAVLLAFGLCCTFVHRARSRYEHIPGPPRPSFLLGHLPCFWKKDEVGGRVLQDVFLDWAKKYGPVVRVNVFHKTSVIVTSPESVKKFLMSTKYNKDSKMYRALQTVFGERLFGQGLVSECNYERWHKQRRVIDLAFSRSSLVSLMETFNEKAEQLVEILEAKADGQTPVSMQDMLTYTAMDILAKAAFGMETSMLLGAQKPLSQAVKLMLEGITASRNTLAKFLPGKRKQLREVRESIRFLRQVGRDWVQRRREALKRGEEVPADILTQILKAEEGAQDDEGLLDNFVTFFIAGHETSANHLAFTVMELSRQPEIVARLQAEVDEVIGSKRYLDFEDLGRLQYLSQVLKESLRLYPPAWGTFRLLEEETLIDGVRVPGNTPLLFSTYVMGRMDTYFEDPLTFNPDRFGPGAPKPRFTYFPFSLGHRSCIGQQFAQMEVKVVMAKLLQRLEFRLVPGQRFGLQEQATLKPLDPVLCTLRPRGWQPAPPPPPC
T2 sequence (P28223 whole entry): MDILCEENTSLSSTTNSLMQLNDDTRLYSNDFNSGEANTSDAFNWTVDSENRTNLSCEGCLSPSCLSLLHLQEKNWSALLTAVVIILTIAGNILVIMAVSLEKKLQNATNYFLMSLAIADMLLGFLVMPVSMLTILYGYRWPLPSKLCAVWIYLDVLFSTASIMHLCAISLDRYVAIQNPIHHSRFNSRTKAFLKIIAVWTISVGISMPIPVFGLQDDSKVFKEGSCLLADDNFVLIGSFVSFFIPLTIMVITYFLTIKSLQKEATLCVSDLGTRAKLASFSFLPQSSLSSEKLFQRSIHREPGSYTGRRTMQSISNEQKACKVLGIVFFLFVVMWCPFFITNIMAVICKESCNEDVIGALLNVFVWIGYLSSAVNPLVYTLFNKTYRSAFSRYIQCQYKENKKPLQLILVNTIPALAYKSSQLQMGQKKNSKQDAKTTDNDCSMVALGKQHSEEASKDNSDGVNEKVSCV
T4 sequence (P08172 whole entry): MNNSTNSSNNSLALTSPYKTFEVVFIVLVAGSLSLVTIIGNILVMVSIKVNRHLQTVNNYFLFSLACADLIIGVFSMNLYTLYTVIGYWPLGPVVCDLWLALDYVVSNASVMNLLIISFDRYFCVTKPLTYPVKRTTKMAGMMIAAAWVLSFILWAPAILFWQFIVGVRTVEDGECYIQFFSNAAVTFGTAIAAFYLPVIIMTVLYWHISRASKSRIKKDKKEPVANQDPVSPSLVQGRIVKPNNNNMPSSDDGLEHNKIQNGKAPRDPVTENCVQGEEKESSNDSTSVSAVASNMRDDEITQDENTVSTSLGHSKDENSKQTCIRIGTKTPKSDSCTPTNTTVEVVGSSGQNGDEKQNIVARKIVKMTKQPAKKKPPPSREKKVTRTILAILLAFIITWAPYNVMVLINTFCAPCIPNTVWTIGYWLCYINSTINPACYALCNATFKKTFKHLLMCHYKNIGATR
T3 sequence (P08588 whole entry): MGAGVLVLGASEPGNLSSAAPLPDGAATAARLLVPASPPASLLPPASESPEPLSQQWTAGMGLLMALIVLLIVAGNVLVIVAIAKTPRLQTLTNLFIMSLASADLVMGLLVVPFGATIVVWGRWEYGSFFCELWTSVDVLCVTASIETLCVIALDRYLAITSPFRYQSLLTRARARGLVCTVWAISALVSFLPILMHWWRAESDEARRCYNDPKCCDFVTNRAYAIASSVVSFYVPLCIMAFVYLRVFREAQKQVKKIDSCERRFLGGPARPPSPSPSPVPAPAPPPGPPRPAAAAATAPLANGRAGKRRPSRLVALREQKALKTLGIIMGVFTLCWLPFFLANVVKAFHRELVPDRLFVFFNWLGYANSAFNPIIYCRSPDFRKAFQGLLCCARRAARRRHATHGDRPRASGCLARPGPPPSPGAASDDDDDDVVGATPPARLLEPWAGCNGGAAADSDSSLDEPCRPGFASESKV

The term IC50 denotes the concentration needed to halve the response being measured. By inhibition is commonly meant the drop in the measured response relative to a control, in per cent. Regarding `O=C(c1cccnc1-c1ccncn1)N1CCC(O)(Cc2ccc(F)cc2)CC1` [compound 2, (4-(4-fluorobenzyl)-4-hydroxypiperidin-1-yl)(2-(pyrimidin-4-yl)pyridin-3-yl)methanone], on CYP46A1 [1], the IC50 came to 0.032 µM. In addition, the inhibition at 10 µM on Human 5-HT2A is -5%; on Human β1, -0.7%; on Human M2, 12.3%.
In the case of `O=C(c1cnc2c(-c3cnco3)cc(C(F)(F)F)cn12)N1C2CCC1COC2` [compound 1, (3-oxa-8-azabicyclo[3.2.1]octan-8-yl)(8-(oxazol-5-yl)-6-(trifluoromethyl)imidazo[1,2-a]pyridin-3-yl)methanone], the IC50 on CYP46A1 [2] was 0.022 µM.
